Laboratory results: ChEMBL document CHEMBL1201862, “PubChem BioAssay data set” (2004)
One block for each compound: values may come before it. Active and inactive are the calls of the source.

How the values were obtained:
[1] = target: T1, High affinity choline transporter 1 (Homo sapiens, UniProt Q9GZV3); test: CHT activators, dose response, cell-based, 10-point CRC, membrane potential dye (AID 602376); format: functional
T1 sequence (Q9GZV3 whole entry): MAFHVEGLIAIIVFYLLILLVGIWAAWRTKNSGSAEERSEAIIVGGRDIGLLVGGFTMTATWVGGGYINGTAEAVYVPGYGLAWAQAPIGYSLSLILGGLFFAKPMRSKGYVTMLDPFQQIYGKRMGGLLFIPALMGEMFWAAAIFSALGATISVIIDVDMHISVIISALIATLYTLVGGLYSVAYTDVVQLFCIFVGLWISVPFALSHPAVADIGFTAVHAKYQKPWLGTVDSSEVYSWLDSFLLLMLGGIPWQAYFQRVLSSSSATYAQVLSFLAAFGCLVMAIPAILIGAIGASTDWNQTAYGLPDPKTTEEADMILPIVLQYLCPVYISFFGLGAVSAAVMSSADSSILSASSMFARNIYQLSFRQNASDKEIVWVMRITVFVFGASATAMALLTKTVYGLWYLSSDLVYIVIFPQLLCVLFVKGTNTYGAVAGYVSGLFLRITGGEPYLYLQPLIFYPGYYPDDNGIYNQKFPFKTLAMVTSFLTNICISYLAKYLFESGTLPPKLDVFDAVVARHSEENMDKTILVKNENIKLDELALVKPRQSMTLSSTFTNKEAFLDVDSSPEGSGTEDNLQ

[2] = target: T2, Sentrin-specific protease 6 (Homo sapiens, UniProt Q9GZR1); test: SAR Analysis of small molecule inhibitors of Sentrin-specific protease 6 (SENP6) using a Luminescent assay. [Related pubchem assays (depositor defined):AID2582, AID2599]; format: functional
T2 sequence (Q9GZR1 whole entry): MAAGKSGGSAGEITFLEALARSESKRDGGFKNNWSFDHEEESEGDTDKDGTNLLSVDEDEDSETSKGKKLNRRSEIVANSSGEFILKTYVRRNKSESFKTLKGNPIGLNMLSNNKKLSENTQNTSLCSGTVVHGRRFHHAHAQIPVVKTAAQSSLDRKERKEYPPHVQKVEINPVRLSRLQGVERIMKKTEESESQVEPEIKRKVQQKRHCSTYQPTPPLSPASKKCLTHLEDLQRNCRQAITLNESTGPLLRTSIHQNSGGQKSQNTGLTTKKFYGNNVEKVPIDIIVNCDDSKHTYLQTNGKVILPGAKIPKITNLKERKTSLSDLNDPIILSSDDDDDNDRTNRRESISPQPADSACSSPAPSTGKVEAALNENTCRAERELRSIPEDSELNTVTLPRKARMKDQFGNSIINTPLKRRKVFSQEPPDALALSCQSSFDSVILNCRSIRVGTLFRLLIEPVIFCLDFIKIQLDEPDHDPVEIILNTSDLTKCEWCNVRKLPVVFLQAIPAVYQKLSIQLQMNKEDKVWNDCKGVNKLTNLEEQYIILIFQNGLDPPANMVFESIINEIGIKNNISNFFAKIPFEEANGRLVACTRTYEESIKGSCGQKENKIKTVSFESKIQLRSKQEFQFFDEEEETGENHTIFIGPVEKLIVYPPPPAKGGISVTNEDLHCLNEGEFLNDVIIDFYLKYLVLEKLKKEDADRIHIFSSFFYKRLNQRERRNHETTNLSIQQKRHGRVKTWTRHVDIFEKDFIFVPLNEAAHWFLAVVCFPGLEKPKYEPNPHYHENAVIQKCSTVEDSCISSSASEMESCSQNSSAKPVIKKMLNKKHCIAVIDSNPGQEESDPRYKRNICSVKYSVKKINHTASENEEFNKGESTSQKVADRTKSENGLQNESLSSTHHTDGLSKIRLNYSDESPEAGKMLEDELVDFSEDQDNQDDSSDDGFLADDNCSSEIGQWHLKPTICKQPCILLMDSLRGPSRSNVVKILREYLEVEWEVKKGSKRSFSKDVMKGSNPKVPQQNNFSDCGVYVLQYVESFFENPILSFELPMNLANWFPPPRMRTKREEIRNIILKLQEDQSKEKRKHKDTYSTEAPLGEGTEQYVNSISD

[3] = target: T3, Sentrin-specific protease 7 (Homo sapiens, UniProt Q9BQF6); test: SENP7 protease inhibitors, SAR follow-up, biochemical, luminescence (AID 504497); format: functional
T3 sequence (Q9BQF6 whole entry): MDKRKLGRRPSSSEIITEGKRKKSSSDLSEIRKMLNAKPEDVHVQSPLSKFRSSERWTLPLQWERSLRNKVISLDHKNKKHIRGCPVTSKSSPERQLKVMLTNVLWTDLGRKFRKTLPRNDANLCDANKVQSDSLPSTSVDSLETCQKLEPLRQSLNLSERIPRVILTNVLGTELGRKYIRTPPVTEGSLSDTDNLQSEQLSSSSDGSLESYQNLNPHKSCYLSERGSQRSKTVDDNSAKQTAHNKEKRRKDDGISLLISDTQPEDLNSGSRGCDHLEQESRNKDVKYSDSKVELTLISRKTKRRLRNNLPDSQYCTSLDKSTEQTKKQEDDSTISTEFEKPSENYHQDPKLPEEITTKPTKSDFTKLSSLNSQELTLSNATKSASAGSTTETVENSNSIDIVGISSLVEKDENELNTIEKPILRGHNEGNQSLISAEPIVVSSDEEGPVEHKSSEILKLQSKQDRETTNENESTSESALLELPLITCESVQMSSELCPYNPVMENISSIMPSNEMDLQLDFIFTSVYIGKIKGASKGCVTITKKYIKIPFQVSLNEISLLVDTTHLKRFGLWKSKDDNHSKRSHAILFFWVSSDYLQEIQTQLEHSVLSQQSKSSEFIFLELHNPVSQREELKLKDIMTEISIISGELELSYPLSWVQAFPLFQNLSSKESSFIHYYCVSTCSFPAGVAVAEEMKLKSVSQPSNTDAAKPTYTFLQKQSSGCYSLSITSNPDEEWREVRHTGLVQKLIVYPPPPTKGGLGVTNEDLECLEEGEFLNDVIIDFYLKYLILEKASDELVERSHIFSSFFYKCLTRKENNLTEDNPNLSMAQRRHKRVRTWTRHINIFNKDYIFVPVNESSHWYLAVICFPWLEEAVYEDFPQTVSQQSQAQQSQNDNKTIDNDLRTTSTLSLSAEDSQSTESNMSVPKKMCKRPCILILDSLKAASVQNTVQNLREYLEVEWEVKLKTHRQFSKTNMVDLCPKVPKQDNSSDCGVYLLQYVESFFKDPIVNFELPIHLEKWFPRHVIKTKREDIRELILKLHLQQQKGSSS

Caspase-3 = target: T4, Caspase-3 (Homo sapiens, UniProt P42574); test: SAR Analysis of small molecule inhibitors of Sentrin-specific proteases (SENPs) using a Caspase-3 Selectivity assay. [Related pubchem assays (depositor defined):AID2540, AID2599, AID434973, AID489001]; format: functional
T4 sequence (P42574 whole entry): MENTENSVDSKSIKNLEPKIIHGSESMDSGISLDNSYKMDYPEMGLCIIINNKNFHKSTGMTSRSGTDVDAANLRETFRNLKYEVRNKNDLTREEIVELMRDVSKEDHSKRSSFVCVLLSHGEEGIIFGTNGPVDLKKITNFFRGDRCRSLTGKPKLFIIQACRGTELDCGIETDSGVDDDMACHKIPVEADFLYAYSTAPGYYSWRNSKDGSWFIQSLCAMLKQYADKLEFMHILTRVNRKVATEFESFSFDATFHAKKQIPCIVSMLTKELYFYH

[4] = target: T5, Sentrin-specific protease 8 (Homo sapiens, UniProt Q96LD8); test: SENP8 protease inhibitors, SAR follow-up, biochemical, luminescence (AID 504501); format: functional
T5 sequence (Q96LD8 whole entry): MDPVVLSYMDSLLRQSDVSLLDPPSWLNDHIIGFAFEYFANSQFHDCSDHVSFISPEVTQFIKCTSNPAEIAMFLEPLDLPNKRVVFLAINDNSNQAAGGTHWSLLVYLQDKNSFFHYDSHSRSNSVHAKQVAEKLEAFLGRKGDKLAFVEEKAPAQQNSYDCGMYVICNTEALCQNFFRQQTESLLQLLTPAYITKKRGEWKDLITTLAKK

[5] = target: Melanin-concentrating hormone receptor 1 (Homo sapiens, UniProt Q99705); test: Late-stage fluorescence-based counterscreen for antagonists of the G-protein coupled receptor 7 (GPR7): cell-based dose response assay to identify antagonists of the melanin-concentrating hormone receptor 1 (MCHR1) Set 5.; format: functional
Melanin-concentrating hormone receptor 1, sequence (Q99705 whole entry): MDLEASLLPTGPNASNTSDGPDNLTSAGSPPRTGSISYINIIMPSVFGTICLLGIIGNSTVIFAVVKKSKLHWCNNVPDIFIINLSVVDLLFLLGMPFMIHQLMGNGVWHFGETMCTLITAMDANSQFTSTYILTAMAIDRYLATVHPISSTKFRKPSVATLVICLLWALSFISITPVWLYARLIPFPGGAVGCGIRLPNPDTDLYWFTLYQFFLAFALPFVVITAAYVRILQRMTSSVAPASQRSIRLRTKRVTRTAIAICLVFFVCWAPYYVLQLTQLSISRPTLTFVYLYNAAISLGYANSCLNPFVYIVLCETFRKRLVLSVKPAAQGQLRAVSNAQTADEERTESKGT

[6] = target: T6, Mitochondrial peptide methionine sulfoxide reductase (Bos taurus, UniProt P54149); format: functional;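 note: absorbance read-out, biochemical high-throughput dose-response screen for MsrA inhibitors, confirmatory; recombinant bovine MsrA coupled to E. coli TrxB with NADPH and selenocystamine; potency is for inhibitors of MsrA activity on DMSO substrate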
T6 sequence (P54149 whole entry): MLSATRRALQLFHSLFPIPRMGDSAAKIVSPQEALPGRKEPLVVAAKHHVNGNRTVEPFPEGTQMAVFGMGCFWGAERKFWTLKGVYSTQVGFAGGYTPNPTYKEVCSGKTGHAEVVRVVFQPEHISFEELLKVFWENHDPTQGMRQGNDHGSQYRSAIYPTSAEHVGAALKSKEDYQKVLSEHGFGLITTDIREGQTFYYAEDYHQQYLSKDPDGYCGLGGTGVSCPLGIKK

[7] = target: T1, High affinity choline transporter 1; test: CHT inhibitors, dose response, cell-based, 5-point CRC, membrane potential dye (AID 504840); format: functional
[8] = Luminescence Cell-Based Dose Confirmation HTS to Identify Inhibitors of Platelet Dense Granule Release. [Related pubchem assays: 1663 (Primary HTS), 1678 (Summary of Project)]; format: functional
[9] = target: T1, High affinity choline transporter 1; test: CHT inhibitors, dose response, cell-based, 10-point CRC, membrane potential dye (AID 588401); format: functional;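 note: membrane potential dye fluorescence of choline-evoked depolarization via CHT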
[10] = target: Luciferin 4-monooxygenase (Photinus pyralis, UniProt P08659); test: firefly luciferase enzyme inhibitors, dose response, biochemical, luminescence (AID 1891)
Luciferin 4-monooxygenase, sequence (P08659 whole entry): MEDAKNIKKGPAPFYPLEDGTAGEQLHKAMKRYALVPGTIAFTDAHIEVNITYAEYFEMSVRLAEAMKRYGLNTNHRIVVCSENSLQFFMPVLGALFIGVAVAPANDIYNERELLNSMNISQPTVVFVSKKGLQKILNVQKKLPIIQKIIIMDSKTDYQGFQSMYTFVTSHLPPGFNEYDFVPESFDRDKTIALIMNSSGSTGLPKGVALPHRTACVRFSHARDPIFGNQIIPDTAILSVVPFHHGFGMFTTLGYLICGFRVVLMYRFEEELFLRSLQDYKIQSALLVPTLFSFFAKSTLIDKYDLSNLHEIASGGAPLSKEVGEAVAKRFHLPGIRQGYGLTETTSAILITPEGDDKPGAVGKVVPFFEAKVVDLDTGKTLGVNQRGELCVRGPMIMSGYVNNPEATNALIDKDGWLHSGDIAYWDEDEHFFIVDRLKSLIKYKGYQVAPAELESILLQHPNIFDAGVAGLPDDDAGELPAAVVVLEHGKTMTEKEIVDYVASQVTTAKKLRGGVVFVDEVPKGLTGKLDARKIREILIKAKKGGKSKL

IC50 [2]: > 99 µM (inactive)
IC50 [3]: > 99 µM (inactive)
IC50 (Caspase-3): > 99 µM (inactive)
SMILES: COc1cc(C(=O)Nc2ccccc2F)ccc1OCc1ccc(Cl)cc1
IC50 [4]: > 99 µM (inactive)

IC50 [6]: 155 µM (inactive)
SMILES: C/C(=N/O)c1cc(C(C)(C)C)c(O)c(C(C)(C)C)c1

The next lines start with the compound.

SMILES: C=CCOc1ccc(Br)cc1CNCCCN1CCOCC1
EC50 [1]: 14.2 µM (active)

SMILES: COc1ccc(Oc2c(Cl)cnn(Cc3cccc4ccccc34)c2=O)cc1F
IC50 [5]: 2.47 µM (active)

SMILES: CCNC(=O)[C@H]1O[C@@H](n2cnc3c(N)nc(NCCc4ccc(CCC(=O)O)cc4)nc32)[C@H](O)[C@@H]1O
IC50 [7]: 0.915 µM (active)
EC50 [8]: < 0.088 µM (active)
IC50 [9]: 0.807 µM (active)
EC50 [10]: > 112 µM (not active)
